Test results: article PMC9321894, “Design and Anticancer Properties of New Water-Soluble Ruthenium–Cyclopentadienyl Complexes” (Pharmaceuticals, 2022)

Columns and labels:
Solubility in water = assay type: physicochemical; details: in presence of air, 25 °C
[1] = target: T1, human serum albumin (HSA) (Homo sapiens, UniProt P02768); test: Fluorescence quenching of HSA (Trp214); assay type: binding; details: for KSV: pH 7.4
T1 construct: purchased Sigma-Aldrich A1653
Description: (§1) Human serum albumin (HSA) was dissolved in 10 mM HEPES buffer (pH 7.4). The HSA concentration was determined spectrophotometrically using the absorbance value at 280 nm (ε280 = 36,500 M^−1cm^−1). Complex 6 was dissolved in 10 mM HEPES buffer (pH 7.4). A series of ruthenium-protein batch solutions were prepared by adding different concentrations of ruthenium solutions to the protein solution prepared previously. For fluorescence acquisition, the final HSA concentration was 2.5 μM, and the ruthenium were 0, 0.6, 1.2, 1.8, 2.5, 5, 7.5, 10, 12.5, 15, 17.5, 20, 22.5, 25, 27.5, 30, 32.5, 35, 37.5, 40, 42.5, and 45 μM. […] The reference solutions were prepared following the procedures described above without protein.
(§2) Steady-state fluorescence measurements were carried out with a Fluorolog Model-3.22 spectrofluorometer from Horiba Jobin Yvon at 293.15, 298.15, and 310.15 K. All measurements were performed in Hellma® semi-micro fluorescence cuvettes (Suprasil® quartz, path length 10 × 4 mm, chamber volume […]) with the 10 mm path length for the excitation of the sample. The excitation and emission slit widths were fixed at 4.0 nm, and the excitation wavelength was set at 295 nm to selectively excite the tryptophan 214 residue. The emission spectra were recorded from 305 to 550 nm. Solutions of ruthenium complex in 10 mM HEPES buffer pH 7.4 in corresponding concentrations were used as reference for the measured fluorescence spectra of protein-complex mixtures. […] The fluorescence intensities were corrected for the absorption of the exciting light and re-absorption of the emitted light to decrease the inner filter effect using UV–visible absorption data recorded for each sample on a Jasco V-660 spectrophotometer in the range of 260 to 900 nm with 1 cm path quartz cells.
(§3) Fluorescence quenching of HSA by complex [Ru(η5-C5H5)(mTPPMS)(bopy)][CF3SO3] (6) […]
(§4) F0 = 1 + K τ (Q) = 1 + K (Q) (S1) where F0 and F are the fluorescence intensities of HSA in the absence and presence of the quencher [Ru(η5-C5H5)(mTPPMS)(bopy)][CF3SO3]; [Q] is the quencher concentration; Kq is the bimolecular quenching constant; t0 is the average fluorescence lifetime of HSA in the absence of the quencher, and KSV is the Stern-Volmer quenching constant.
(§5) Figure S10. Stern-Volmer plots at pH7.4 for the quenching of (A) HSA and (B) HSA faf by [Ru(η5-C5H5)(mTPPMS)(bopy)][CF3SO3] at three temperatures (◆) 293 K, (●) 298 K, (▲) 310 K.
(§6) log(F0 − F) = log K + nlog[Q] ( S2) […]
(§7) where Ka is the association constant for a site and n is the number of binding sites by protein.
(§8) Figure S11. Double-log plots for the fluorescence quenching for the (A) {HSA-[Ru(η5-C5H5)(mTPPMS)(bopy)][CF3SO3]} and (B) {HSAfaf-[Ru(η5-C5H5)(mTPPMS)(bopy)][CF3SO3]} systems at three temperatures (◆) 293 K, (●) 298 K, (▲) 310 K. […]

[2] = target: T2, fatty-acid-free human serum albumin (HSA^faf) (Homo sapiens, UniProt P02768); test: Fluorescence quenching of HSA^faf (Trp214); assay type: binding; details: for KSV: pH 7.4
T2 construct: purchased Sigma-Aldrich A3782
Description: as §1, §2, §3, §4, §5, §6, §7, §8

[3] = highest Ru concentration (45 μM), pH 7.4, incubation at 298 K for 24 h

T2 sequence (P02768 25-609): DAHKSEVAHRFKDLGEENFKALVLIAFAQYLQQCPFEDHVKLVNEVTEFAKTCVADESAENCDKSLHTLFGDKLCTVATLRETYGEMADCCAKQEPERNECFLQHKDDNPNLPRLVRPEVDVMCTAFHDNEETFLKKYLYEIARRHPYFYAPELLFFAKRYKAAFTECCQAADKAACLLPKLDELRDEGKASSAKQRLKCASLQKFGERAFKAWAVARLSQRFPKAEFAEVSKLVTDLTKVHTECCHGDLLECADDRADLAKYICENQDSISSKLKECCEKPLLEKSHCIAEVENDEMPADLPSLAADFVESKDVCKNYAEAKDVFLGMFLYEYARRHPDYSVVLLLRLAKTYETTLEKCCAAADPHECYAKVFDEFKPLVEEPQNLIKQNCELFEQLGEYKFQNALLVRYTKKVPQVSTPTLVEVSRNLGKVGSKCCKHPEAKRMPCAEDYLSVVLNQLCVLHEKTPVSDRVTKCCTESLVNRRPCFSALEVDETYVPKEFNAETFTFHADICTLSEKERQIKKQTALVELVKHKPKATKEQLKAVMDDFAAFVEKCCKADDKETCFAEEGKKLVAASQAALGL
T1 sequence (P02768 25-609): as above

With “[RuCp(mTPPMSNa)(bopy)][CF3SO3] [Compound 6]” the “S(H2O)” value (Solubility in water) was 15.3 mg/mL, the “S(H2O)” value (Solubility in water; value in brackets) was 0.015 M and the “Ka (association constant for a site)” value ([1]; 293.15 K) was “(38.806 ± 1.26) × 10^4 L mol^−1”. For the same substance, the Kq ([1]; 293.15 K) was “(7.91 ± 0.10) × 10^12 L mol^−1 s^−1”, the “n (number of binding sites)” value ([1]; 293.15 K) was 1.136 and the ΔG ([1]; 293.15 K) was -72.37 kJ/mol. For the same substance, the KSV ([1]; 293.15 K) was “(7.91 ± 0.10) × 10^4 L mol^−1”, the “Ka (association constant for a site)” value ([1]; 298.15 K) was “(19.467 ± 1.14) × 10^4 L mol^−1” and the Kq ([1]; 298.15 K) was “(8.73 ± 0.12) × 10^12 L mol^−1 s^−1”. For the same substance, the “n (number of binding sites)” value ([1]; 298.15 K) was 1.053, the ΔG ([1]; 298.15 K) was -73.81 kJ/mol and the KSV ([1]; 298.15 K) was “(8.73 ± 0.12) × 10^4 L mol^−1”. The “Ka (association constant for a site)” value ([1]; 310.15 K) was “(13.948 ± 1.15) × 10^4 L mol^−1”, the Kq ([1]; 310.15 K) was “(10.4 ± 0.15) × 10^12 L mol^−1 s^−1” and the “n (number of binding sites)” value ([1]; 310.15 K) was 0.994. The ΔG ([1]; 310.15 K) was -77.26 kJ/mol, the KSV ([1]; 310.15 K) was “(10.4 ± 0.15) × 10^4 L mol^−1” and the ΔH ([1]; Van't Hoff, 293.15-310.15 K) was 11.99 (R^2 = 0.9963) kJ mol^−1. For the same substance, the ΔS ([1]; Van't Hoff, 293.15-310.15 K) was 287.92 J mol^−1 K^−1, the “Quenching of fluorescence intensity” value [1, 3] was 75% and the “Ka (association constant for a site)” value ([2]; 293.15 K) was “(57.293 ± 1.27) × 10^4 L mol^−1”. The Kq ([2]; 293.15 K) was “(28.7 ± 0.49) × 10^12 L mol^−1 s^−1”, the “n (number of binding sites)” value ([2]; 293.15 K) was 1.048 and the ΔG ([2]; 293.15 K) was -156.59 kJ/mol. For the same substance, the KSV ([2]; 293.15 K) was “(28.7 ± 0.49) × 10^4 L mol^−1”, the “Ka (association constant for a site)” value ([2]; 298.15 K) was “(66.764 ± 1.29) × 10^4 L mol^−1” and the Kq ([2]; 298.15 K) was “(40.7 ± 0.75) × 10^12 L mol^−1 s^−1”. For the same substance, the “n (number of binding sites)” value ([2]; 298.15 K) was 1.023, the ΔG ([2]; 298.15 K) was -158.57 kJ/mol and the KSV ([2]; 298.15 K) was “(40.7 ± 0.75) × 10^4 L mol^−1”. For the same substance, the “Ka (association constant for a site)” value ([2]; 310.15 K) was “(80.668 ± 1.17) × 10^4 L mol^−1”, the Kq ([2]; 310.15 K) was “(72.6 ± 1.02) × 10^12 L mol^−1 s^−1” and the “n (number of binding sites)” value ([2]; 310.15 K) was 1.006. The ΔG ([2]; 310.15 K) was -163.32 kJ/mol, the KSV ([2]; 310.15 K) was “(72.6 ± 1.02) × 10^4 L mol^−1” and the ΔH ([2]; Van't Hoff, 293.15-310.15 K) was 40.51 (R^2 = 0.9938) kJ mol^−1. For the same substance, the ΔS ([2]; Van't Hoff, 293.15-310.15 K) was 396.16 J mol^−1 K^−1 and the “Quenching of fluorescence intensity” value [2, 3] was 97%.
